We go through two compounds from ChEMBL document CHEMBL4342505, “Achieving In Vivo Target Depletion through the Discovery and Optimization of Benzimidazolone BCL6 Degraders” (J Med Chem, 2020).

In brackets after ≈: the same amount, converted by molar mass. Activity calls are given as the source filed them. The calls are words filed in the database; no cut-off is given here.

A short description of series [1]: Kinetic solubility in HEPES buffer containing 5% DMSO at pH 8 incubated for 20 hrs by NMR analysis. Type of series: physicochemical. Conditions: read-out: Kinetic_solubility.
Series [2] is described as follows: Kinetic solubility in PBS buffer containing 1% DMSO at pH 7.4 incubated for 2 hrs by HPLC analysis. Type of series: physicochemical. Conditions: read-out: Kinetic_solubility.
A short description of series [3]: Metabolic stability in CD-1 mouse liver microsomes assessed as intrinsic clearance at 1 uM measured upt0 30 mins by LC-MS/MS analysis. Type of series: ADME, Microsome. Conditions: 0.5 h. (In general: Microsomes from liver hold many membrane-bound enzymes, among them those of drug oxidation.)
Series [4] has as its system SUD4. In words: Antiproliferative activity agianst human SUDHL4 cells assessed as growth inhibition incubated for 14 days by CellTiter Glo reagent based assay. Type of series: functional. The following applies: SU-DHL-4, […]. (ATP-based viability assays read luminescence as a measure of living cells.)
The test system of series [5] is OCI-Ly1. In words: Antiproliferative activity agianst human OCI-LY1 cells assessed as growth inhibition incubated for 14 days by CellTiter Glo reagent based assay.
The subject of series [6] is OCI-Ly3. In words: Antiproliferative activity agianst human OCI-LY3 cells assessed as growth inhibition incubated for 14 days by CellTiter Glo reagent based assay.
Series [7] is described as follows: Cmax in SCID mouse at 5 mg/kg, po measured upto 24 hrs by LC/MS-MS analysis. Type of series: ADME, organism-based. Further details: dose 5 mg/kg, route oral. Conditions: in vivo.
Series [8] is described as follows: AUC (0 to 10 hrs) in SCID mouse at 5 mg/kg, po measured upto 10 hrs by LC/MS-MS analysis. It is filed as ADME, organism-based. Further details: time < 10 hr, dose 5 mg/kg, route oral. The following applies: in vivo.
Series [9] is described as follows: Cmax in SCID mouse at 15 mg/kg, po measured upto 24 hrs by LC/MS-MS analysis. Further details: dose 15 mg/kg, route oral. It is filed as ADME, organism-based. Conditions: in vivo.
Series [10] is described as follows: AUC (0 to 10 hrs) in SCID mouse at 15 mg/kg, po measured upto 10 hrs by LC/MS-MS analysis. It is filed as ADME, organism-based. Further details: dose 15 mg/kg, time < 10 hr, route oral. Conditions: in vivo.
Series [11] can be described thus: Cmax in SCID mouse at 50 mg/kg, po measured upto 24 hrs by LC/MS-MS analysis. It is filed as ADME, organism-based. Set-up: dose 50 mg/kg, route oral. Conditions: in vivo.
Series [12] is described as follows: AUC (0 to 10) hrs in SCID mouse at 50 mg/kg, po measured upto 10 hrs by LC/MS-MS analysis. Set-up: dose 50 mg/kg, time < 10 hr, route oral. Conditions: in vivo. Type of series: ADME, organism-based.
Series [13] is described as follows: Protein binding in SCID mouse plasma assessed as unbound fraction. It is filed as ADME, cell-free.
Series [14] in a line: Plasma concentration in SCID mouse. It is filed as ADME, cell-free.
The nature of series [15]: Drug level in SCID mouse blood. Type of series: ADME, tissue-based. The following applies: read-out: Ct.
Series [16] concerns Mus musculus. In words: In vivo inhibition of BCL6 in SCID mouse xenografted with human OCI-LY1 cells assessed as reduction in BCL6 level at 15 mg/kg, po measured upto 10 hrs by Western blot analysis. Type of series: functional, organism-based.
Series [17] can be described thus: Toxicity in SCID mouse xenografted with human OCI-LY1 cells assessed as adverse effect at 15 mg/kg, po observed for 24 hrs. Type of series: organism-based. Conditions: in vivo. On the technique in general: Xenograft models place foreign cells or tissue in a host animal.
Series [18] concerns Mus musculus. The experiment in a line: In vivo inhibition of BCL6 in SCID mouse xenografted with human OCI-LY1 cells assessed as reduction in BCL6 level at 15 mg/kg, po measured at 12 and 16 hrs by Western blot analysis. It is filed as functional, organism-based.
The nature of series [19]: Lipophilicity, log D of compound at pH 7.4. Type of series: physicochemical. Conditions: buffer.
Series [20] can be described thus: in vivo. The following applies: SCID, mouse, po, 5 mg/kg.
A short description of series [21]: in vivo. Conditions: SCID, mouse, po, 15 mg/kg.
Series [22] is described as follows: in vivo. The following applies: SCID, mouse, po, 50 mg/kg.
For series [23], the target named is T1, B-cell lymphoma 6 protein (Homo sapiens, UniProt P41182).
Description: Inhibition of recombinant His-tagged human BCL6 expressed in Escherichia coli BL21 AI cell incubated for 2 hrs by TR-FRET assay
Series [24] deals with T1, B-cell lymphoma 6 protein. The following applies: oci-ly1.
Description: Induction of BCL6 degradation in human OCI-LY1 cells incubated for 2 hrs by MSD electrochemiluminescent immunoassay
The target in series [25] is T1, B-cell lymphoma 6 protein. The source holds these as a separate data set.
Description: Induction of BCL6 degradation in human KARPAS422 cells incubated for 2 hrs by MSD electrochemiluminescent immunoassay

What is called GI50 is the concentration giving 50% growth inhibition. The term Cmax denotes the highest concentration seen after dosing. Usually AUC(0-t) stands for exposure summed from dosing to a finite time, without extrapolation to infinity. By AUC is commonly meant the area under the concentration-time curve, a measure of exposure. In general, fraction unbound refers to the share of the substance not bound to proteins or other matrix. For orientation: logD means the decadic logarithm of the distribution of all forms, ionised or not, between an organic phase and buffer at a given pH. Higher therefore signals higher lipophilicity. Usually Tmax stands for the time from dosing to the highest level. One may read the IC50 as the midpoint of a concentration-inhibition curve. Low values mean greater potency in that assay, high ones weaker potency in that assay.

As for `C[C@@H]1CN(c2ncc(Cl)c(Nc3ccc4c(c3)n(CCC(C)(C)O)c(=O)n4C)n2)C[C@H](C)C1(F)F`, the solubility kinetic at 20 h in series [1] was determined as 11 µM (≈ 5.6 µg/mL). Moreover, in series [2], the solubility kinetic at 2 h amounted to 8 µM (≈ 4.07 µg/mL). For the same compound, the CLH in series [3] was 78 µL/min/mg. The GI50 turned out to be 92 nM in series [4], 35 nM in [5] and 1600 nM in series [6]. Further, the highest concentration (Cmax) in series [7] lay within 1870 to 2040 nM; in [9] it was 6680 to 6930 nM; in series [11] it was 5320 to 6210 nM. The AUC(0-t) at 10 h in series [8] is 11.6 to 13.1 µM·h; in series [10] it was 48.2 to 49.3 µM·h. This compound yielded an AUC at 10 h in [12] of 47.4 to 56.3 µM·h. For the same compound, the fraction unbound in series [13] was 0.0007. In addition, the results for the concentration in series [14] and in series [15] were 1500 nM and 2800 nM, respectively. In [16], the inhibition entry was “Active”. In addition, in [17], the Activity entry is reported as “Non-Toxic”. In series [18], the inhibition result is “inactive”. Also, the logD in series [19] turned out to be 4.3. For the same compound, the figures for the Tmax at 24 h in [20], in series [21] and in [22] were 0.5 to 1 h, 0.5 to 2 h and 2 to 6 h, respectively.
For `Cn1c(=O)n(CCC(C)(C)O)c2cc(Nc3nc(N4CCC(F)(F)CC4)ncc3Cl)ccc21`, in series [1], the solubility kinetic at 20 h stood at 66 µM (≈ 31.7 µg/mL). Moreover, in series [3], the CLH came out at 36 µL/min/mg. In addition, the GI50 in series [5] stood at 500 nM; in [6] it was 2600 nM. In [19], this compound came in with a logD of 3.4. In addition, the IC50 in series [23] came out at 310 nM. In addition, the DC50 was determined as 180 nM in series [24] and 290 nM in series [25].
